The text below walks through data of article PMC11056381, “Characterization and evaluation of cytotoxic and antimicrobial activities of cyclotides from Viola japonica” (Scientific Reports, 2024).

Assay type in all cases: cell-based
The subject of one experiment is Bacillus subtilis. Put plainly: Time killing kinetics. The following applies: about 10^6 CFU/mL, LB, 37 °C, colony count. As for the experimental part:
In this study, we investigated the time-kill kinetics characteristics of plant cyclotides against bacteria. […] It is worth noting that due to experimental constraints, there was a slight discrepancy of a few minutes between theoretical 0 h and actual 0 h. […] Furthermore, we also conducted time-kill kinetics studies using vija 10 against B. subtilis.
Figure 4 (A) The Acinetobacter baumannii time killing kinetics of cycloviolacin O2 at concentration of 1 MIC, 2 MIC, 4 MIC and 8 MIC at 37 °C. (B) The Bacillus subtilis time killing kinetics of vija 10 at concentration of 1 MIC, 2 MIC, 4 MIC at 37 °C. Each test was performed three times at least.
Incubate A. baumannii and B. subtilis in fresh nutrient LB broth at 37 °C until logarithmic growth stage, then dilute to approximately 10^6 CFU/mL, and incubate with cycloviolacin O2 at concentrations of 1 MIC, 2 MIC, 4 MIC, 8 MIC with A. baumannii and vija 10 at concentrations of 1 MIC, 2 MIC, 4 MIC with B. subtilis respectively. Taking the mixture at time points of 0 h, 0.5 h, 1 h, 1.5 h and 2 h, dilute and coat it to solid medium for 24 h. Count the number of colonies on solid culture medium. Each test was performed three times at least. Plotting a line graph with time on the x-axis and bacterial survival on the y-axis using GraphPad Prism 8. Statistical analysis of bacterial viability at different time points to determine the bactericidal and bacteriostatic effects of cyclotides.

In experiment [1] the test system is 4T1 (mouse breast cancer cells). Put plainly: MTT cytotoxicity assay. The following applies: 4T1 cells, 48 h incubation, mean ± SD of at least three repeats. As for the experimental part: (§1) Five types of cells, namely A549 (human non-small cell lung cancer cells), T24 (human bladder cancer cells), 4T1 (mouse breast cancer cells), 7402 (human hepatocellular carcinoma cells), and THLE-3 (human hepatocytes cells), are selected for evaluating the cytotoxicity of viba 11, cycloviolacin O2, and vija 10 using the MTT (3-(4,5-dimethylthiazol-2-yl)-2,5-diphenyltetrazolium bromide) reagent.
(§2) To determine cell toxicity using MTT assay, cells are seeded in a 96-well plate and cultured for 24 h. After that, different concentrations of cyclotides are added to the cells and incubated for 48 h. MTT is then added to react with the cells, and after 4 h, the reaction is terminated by discarding the supernatant and adding dimethyl sulfoxide for resuspension. The absorbance at 570 nm is measured after 10 min of shaking at room temperature. Each test was performed three times at least. The data were analyzed using GraphPad Prism 8. During this process, the drug concentrations were transformed into logarithmic form with a base of 10 and plotted on the x-axis. Cell viability (%) = [A (cyclotides) − A (blank)]/[A (control) − A (blank)] × 100, which was represented on the y-axis. Using this method, we determined the IC50 value for each experiment, with each experiment repeated at least three times and the mean value calculated. The error was represented by the standard deviation of the IC50 obtained from three repetitions.

The test system of experiment [2] is 7402 (human hepatocellular carcinoma cells). Put plainly: MTT cytotoxicity assay. Particulars: 7402 cells, 48 h incubation, mean ± SD of at least three repeats. As for the experimental part:
as §1, §2
(Formazan colour is commonly taken as a measure of viable cells.)

For experiment [3], the system named is A549 (human non-small cell lung cancer cells). The experiment can be described thus: MTT cytotoxicity assay. Particulars: 48 h incubation, mean ± SD of at least three repeats. As for the experimental part: as §1, §2
In experiment [4] the test system is T24 (human bladder cancer cells). Put plainly: MTT cytotoxicity assay. The following applies: 48 h incubation, mean ± SD of at least three repeats. The protocol: as §1, §2
In experiment [5] the test system is THLE-3 (human hepatocytes cells). The experiment can be described thus: MTT cytotoxicity assay. The following applies: THLE-3 cells, 48 h incubation, mean ± SD of at least three repeats. As for the experimental part: as §1, §2

Residues, ends and D or L forms follow the SMILES beside them.

On to `CC[C@H](C)[C@@H]1NC(=O)[C@@H]2CSSC[C@@H]3NC(=O)[C@H](C(C)C)NC(=O)[C@H](CCCCN)NC(=O)[C@H](CO)NC(=O)[C@H](CO)NC(=O)[C@@H]4CSSC[C@H](NC(=O)[C@H](CO)NC(=O)[C@H](CCC(=O)O)NC(=O)CNC(=O)[C@H](CSSC[C@H](NC(=O)CNC(=O)[C@H](CC(C)C)NC(=O)[C@H](CC(C)C)NC(=O)[C@H](C)NC(=O)[C@H](CO)NC1=O)C(=O)N[C@@H](CO)C(=O)N4)NC(=O)[C@@H]1CCCN1C(=O)[C@H]([C@@H](C)CC)NC(=O)[C@H](CO)NC(=O)CNC(=O)[C@H](CC(N)=O)NC(=O)[C@H](CCCCN)NC(=O)[C@H](Cc1ccc(O)cc1)NC3=O)C(=O)N[C@@H](C(C)C)C(=O)N[C@@H](Cc1ccccc1)C(=O)N[C@@H]([C@@H](C)CC)C(=O)N1CCC[C@H]1C(=O)N2` [vija 10] (HELM PEPTIDE1{A.L.L.G.C.S.C.S.S.K.V.C.Y.K.N.G.S.I.P.C.G.E.S.C.V.F.I.P.C.I.S}$PEPTIDE1,PEPTIDE1,5:R3-20:R3|PEPTIDE1,PEPTIDE1,7:R3-24:R3|PEPTIDE1,PEPTIDE1,12:R3-29:R3|PEPTIDE1,PEPTIDE1,1:R1-31:R2$$$V2.0), for which, in the experiment on Bacillus subtilis (2 MIC), the “time of treatment to complete eradication of B. subtilis” value turned out to be 2 h. For the same compound, in the experiment on Bacillus subtilis (4 MIC), the “time of treatment to effective killing of B. subtilis” value is 1 h. For the same compound, the IC50 amounted to 244 ± 20 nM in experiment [1]; 2180 ± 60 nM in experiment [2]; 733 ± 200 nM in experiment [3]; 3280 ± 150 nM in experiment [4]; 2090 ± 60 nM in experiment [5].

One may read the IC50 as the concentration at which inhibition is half-maximal. A lower IC50 goes with higher potency.
